One may read the IC50 as the concentration needed to halve the response being measured.

The target in this assay is T1, BKB1 receptors (Homo sapiens, UniProt P46663).
T1 construct: Human (IMR-90) lung fibroblast cells expressing native BKB1 receptors; endogenous in cells; host or cells: IMR-90 human lung fibroblasts, treated with human IL-1 to up-regulate BKB1
T1 sequence (P46663 1-353): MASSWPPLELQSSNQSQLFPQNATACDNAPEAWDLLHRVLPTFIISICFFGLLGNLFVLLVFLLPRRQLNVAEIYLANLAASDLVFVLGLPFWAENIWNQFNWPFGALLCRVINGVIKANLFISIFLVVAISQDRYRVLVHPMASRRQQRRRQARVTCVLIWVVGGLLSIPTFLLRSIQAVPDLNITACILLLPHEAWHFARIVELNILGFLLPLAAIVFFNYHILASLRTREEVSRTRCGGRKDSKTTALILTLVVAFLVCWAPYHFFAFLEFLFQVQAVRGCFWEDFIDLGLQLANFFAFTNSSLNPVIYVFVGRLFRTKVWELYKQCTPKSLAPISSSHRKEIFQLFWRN
Kind of assay: Calcium Mobilization Assay (FLIPR), IMR-90 cells, BKB1. In kind it is cell-based. The note with it: IL-1 induced IMR-90 cells, agonist desArg10-kallidin (DAKD). The protocol:
Calcium Mobilization Assay (FLIPR)—Human (IMR-90) lung fibroblast cells expressing native BKB1 receptors were harvested by trypsinization and seeded into black wall/clear bottom 96-well plates (Costar 3904; Corning Life Sciences, Acton, Mass.) at approximately 13,000 cells/well. After 1 day incubation, cells were treated with human IL-1 (0.35 ng/ml) in 10% FBS/MEM for 2 h to up-regulate BKB1 receptors. Induced cells were loaded with fluorescent calcium indicator by incubation with 2.3 µM Fluo-4/acetoxymethyl ester (Invitrogen) at 37° C. for 1.5 h in the presence of an anion transport inhibitor (2.5 mM probenecid in 1% FBS/MEM). Extracellular dye was removed by washing with assay buffer (2.5 mM probenecid, 0.1% BSA in 20 mM HEPES/HBSS without bicarbonate or phenol red, pH 7.5) and cell plates were kept in the dark until used. Test compounds were assayed at eight concentrations in triplicate.
(A change in cytosolic calcium serves as a functional read-out for many receptors and channels.)
As for `Cc1ccc(C(C(=O)NCC2CCCO2)N(CC(C)C)C(=O)Cc2c[nH]cn2)cc1` (centres unmarked) [49 (mix), 2-(1H-imidazol-4-yl)-N-(2-methylpropyl)-N-{1-(4-methylphenyl)-2-oxo-2-[(tetrahydrofuran-2-ylmethyl)amino]ethyl}acetamide], the half-maximal inhibitory concentration (IC50) was 14.7 µM.

For the compound `CCC(CC)CN(C(=O)C1CCCCC1)C(C(=O)NCC1CCCO1)c1ccc(C)cc1` (centres unmarked) [50 (mix), N-(2-ethylbutyl)-N-{1-(4-methylphenyl)-2-oxo-2-[(tetrahydrofuran-2-ylmethyl)amino]ethyl}cyclohexanecarboxamide], the concentration for half-maximal inhibition (IC50) is 14.2 µM.

On to `Cc1ccc(C(C(=O)NCC2CCCO2)N(CC2CCCCC2)C(=O)Cc2ccccc2C)cc1` (centres unmarked) [33 (mix), N-(cyclohexylmethyl)-2-(2-methylphenyl)-N-{1-(4-methylphenyl)-2-oxo-2-[(tetrahydrofuran-2-ylmethyl)amino]ethyl}acetamide], for which the IC50 stood at 1.7 µM.

As to `Cc1ccc(C(C(=O)NCC2CCCO2)N(CC2CCCCC2)C(=O)Cc2cccc(C)c2)cc1` (centres unmarked) [40 (mix), N-(cyclohexylmethyl)-2-(3-methylphenyl)-N-{1-(4-methylphenyl)-2-oxo-2-[(tetrahydrofuran-2-ylmethyl)amino]ethyl}acetamide], the 50% inhibitory concentration (IC50) turned out to be 5.1 µM.

As for `COc1ccccc1CN(C(=O)c1ccc(C)cc1)C(C(=O)NCC1CCCO1)c1ccc(C)cc1` (centres unmarked) [20 (mix), 4-methyl-N-(2-methoxybenzyl)-N-{1-(4-methylphenyl)-2-oxo-2-[(tetrahydrofuran-2-ylmethyl)amino]ethyl}benzamide], the IC50 stood at 6.1 µM.

For the compound `COc1ccccc1CN(C(=O)Cc1ccccc1C)C(C(=O)NCC1CCCO1)c1ccc(C)cc1` (centres unmarked) [9 (mix)], the IC50 is 0.3 µM.

With `Cc1ccc(C(C(=O)NCC2CCCO2)N(CC2CCCC2)C(=O)Cc2ccccc2C)cc1` (centres unmarked) [44 (mix), N-(cyclopentylmethyl)-2-(2-methylphenyl)-N-{1-(4-methylphenyl)-2-oxo-2-[(tetrahydrofuran-2-ylmethyl)amino]ethyl}acetamide], the IC50 turned out to be 12.6 µM.

Turning to `COc1ccccc1CN(C(=O)CN1C(=O)c2ccccc2C1=O)C(C(=O)NCC1CCCO1)c1ccc(C)cc1` (centres unmarked) [10 (mix), 2-(1,3-dioxoisoindolin-2-yl)-N-(2-methoxybenzyl)-N-{1-(4-methylphenyl)-2-oxo-2-[(tetrahydrofuran-2-ylmethyl)amino]-ethyl}acetamide], the IC50 stood at 0.3 µM.

On to `COc1ccccc1CN(C(=O)Cn1nnc2ccccc21)[C@@H](C(=O)NC[C@H]1CCCO1)c1ccc(C)cc1` [Compound 1 (R,R), 2-(1H-benzotriazol-1-yl)-N-(2-methoxybenzyl)-N-{[(1R)-1-(4-methylphenyl)]-2-oxo-2-[(2R)-(tetrahydrofuran-2-ylmethyl)amino]ethyl}acetamide], for which the IC50 was determined as 0.043 µM.

For the compound `CCC(CC)CN(C(=O)Cc1ccccc1C)C(C(=O)NCC1CCCO1)c1ccc(C)cc1` (centres unmarked) [41 (mix), N-(2-ethylbutyl)-2-(2-methylphenyl)-N-{1-(4-methylphenyl)-2-oxo-2-[(tetrahydrofuran-2-ylmethyl)amino]ethyl}acetamide], the half-inhibitory concentration (IC50) was found to be 4.3 µM.

Take “N-(2-methoxybenzyl)-N-{(1R)-1-(4-methylphenyl)-2-oxo-2-[(2R)-(pyrrolidin-2-ylmethyl)amino]ethyl}-2-(1H-1,2,3-triazol-1-yl)acetate [Compound 55 (R,R)]”: the 50% inhibitory concentration (IC50) is 0.0757 µM.

Consider `Cc1ccc(C(C(=O)NCC2CCCO2)N(CC2CCCC2)C(=O)Cc2cccc(C)c2)cc1` (centres unmarked) [45 (mix), N-(cyclopentylmethyl)-2-(3-methylphenyl)-N-{1-(4-methylphenyl)-2-oxo-2-[(tetrahydrofuran-2-ylmethyl)amino]ethyl}acetamide], for which the IC50 was 13.1 µM.

On to `CCCCC(=O)N(Cc1ccccc1OC)C(C(=O)NCC1CCCO1)c1ccc(C)cc1` (centres unmarked) [14 (mix), N-(2-methoxybenzyl)-N-{1-(4-methylphenyl)-2-oxo-2-[(tetrahydrofuran-2-ylmethyl)amino]ethyl}pentanamide], for which the half-inhibitory concentration (IC50) turned out to be 0.3 µM.

`Cc1ccc(C(C(=O)NCC2CCCO2)N(CC2CCCC2)C(=O)Cc2ccccc2)cc1` (centres unmarked) [47 (mix), N-(cyclopentylmethyl)-N-{1-(4-methylphenyl)-2-oxo-2-[(tetrahydrofuran-2-yl)methylamino]ethyl}2-phenylacetamide]: the half-maximal inhibitory concentration (IC50) is 9.8 µM.

Turning to `COc1ccccc1CN(C(=O)c1coc(C)n1)[C@@H](C(=O)NC[C@H]1CCCO1)c1ccc(C)cc1` [Compound 2 (R,R)], the IC50 came to 0.063 µM.

For `Cc1ccc(C(C(=O)NCC2CCCO2)N(CC2CCCCC2)C(=O)CC2CCCC2)cc1` (centres unmarked) [48 (mix), N-(cyclohexylmethyl)-2-cyclopentyl-N-{1-(4-methylphenyl)-2-oxo-2-[(tetrahydrofuran-2-ylmethyl)amino]ethyl}acetamide], the IC50 was found to be 15 µM.

In the case of `Cc1ccc(C(C(=O)NCC2CCCO2)N(CC2CCCCC2)C(=O)CN(C)C)cc1` (centres unmarked) [34 (mix), N-(cyclohexylmethyl)-2-(dimethylamino)-N-{1-(4-methylphenyl)-2-oxo-2-[(tetrahydrofuran-2-ylmethyl)amino]ethyl}acetamide], the half-inhibitory concentration (IC50) is 1.1 µM.

For `Cc1ccc(C(C(=O)NCC2CCCO2)N(CC2CCCC2)C(=O)CC2CCCC2)cc1` (centres unmarked) [51 (mix), 2-cyclopentyl-N-cyclopentylmethyl-N-{1-(4-methylphenyl)-2-oxo-2-[(tetrahydrofuran-2-ylmethyl)amino]ethyl}acetamide], the IC50 amounted to 13 µM.

For the compound `COc1ccccc1CN(C(=O)CC(C)C)C(C(=O)NCC1CCCO1)c1ccc(C(F)(F)F)cc1` (centres unmarked) [54 (mix)], the IC50 turned out to be 0.528 µM.

Regarding `COc1ccccc1CN(C(=O)C1CCC(F)(F)CC1)C(C(=O)NCC1CCCO1)c1ccc(C)cc1` (centres unmarked) [23 (mix), 4,4-difluoro-N-(2-methoxybenzyl)-N-{1-(4-methylphenyl)-2-oxo-2-[(tetrahydrofuran-2-ylmethyl)amino]ethyl}cyclohexanecarboxamide], the 50% inhibitory concentration (IC50) was determined as 8.4 µM.

On to `COc1ccccc1CN(C(=O)Cn1nnc2ccccc21)C(C(=O)NCC1CCCO1)c1ccc(C(F)(F)F)cc1` (centres unmarked) [53 (mix), 2-(1H-benzotriazol-1-yl)-N-(2-methoxybenzyl)-N-{1-(4-trifluoromethylphenyl)-2-oxo-2-[(tetrahydrofuran-2-ylmethyl)amino]ethyl}acetamide], for which the IC50 was determined as 0.297 µM.

In the case of `Cc1ccc(C(C(=O)NCC2CCCO2)N(Cc2csc3ccccc23)C(=O)CN(C)C)cc1` (centres unmarked) [39 (mix), N-(1-benzothiophen-3-ylmethyl)-2-(dimethylamino)-N-{1-(4-methylphenyl)-2-oxo-2-[(tetrahydrofuran-2-ylmethyl)amino]ethyl}acetamide], the IC50 amounted to 1.2 µM.

On to `Cc1ccc(C(C(=O)NCC2CCCO2)N(Cc2cccn2C)C(=O)CN(C)C)cc1` (centres unmarked) [43 (mix), 2-(dimethylamino)-N-[(1-methyl-1H-pyrrol-2-yl)methyl]-N-{1-(4-methylphenyl)-2-oxo-2-[(tetrahydrofuran-2-ylmethyl)amino]ethyl}acetamide], for which the IC50 amounted to 9.5 µM.

Regarding `COc1ccccc1CN(C(=O)Cc1cccc(C)c1)C(C(=O)NCC1CCCO1)c1ccc(C)cc1` (centres unmarked) [18 (mix)], the IC50 was 0.3 µM.

In the case of `Cc1ccc(C(C(=O)NCC2CCCO2)N(CC2CCCC2)C(=O)Cc2c[nH]cn2)cc1` (centres unmarked) [32 (mix), N-(cyclopentylmethyl)-2-(1H-imidazol-4-yl)-N-{1-(4-methylphenyl)-2-oxo-2-[(tetrahydrofuran-2-ylmethyl)amino]ethyl}acetamide], the IC50 was 0.8 µM.

On to `COc1ccccc1CN(C(=O)C1CC1)C(C(=O)NCC1CCCO1)c1ccc(C)cc1` (centres unmarked) [27 (mix), N-(2-methoxybenzyl)-N-{1-(4-methylphenyl)-2-oxo-2-[(tetrahydrofuran-2-ylmethyl)amino]ethyl}cyclopropanecarboxamide], for which the IC50 was 15 µM.

Source of the values: patent US9409876B2, “Bradykinin receptor antagonists and pharmaceutical compositions containing them” (DOMPE' FARMACEUTICI S.P.A., priority 2013, dated 2016).
